Assay results from patent US9890166B2, “Imidazopyrrolidine derivatives and their use in the treatment of disease” (NOVARTIS AG, priority 2013, dated 2018).

Key:
BRD4 (His-Brd4(44-477)) = BRD4 (His-Brd4(44-477)) (Homo sapiens (Human), UniProt O60885); test: TR-FRET in-vitro binding assay for BRD4; details: single determination or n ≧ 2 independent determinations, read-out: Biochemical IC50 BRD4
Method in brief: (§1)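 In this TR-FRET format, each compound was tested as an 8-point dilution series, single point per concentration, dispensed from 90% DMSO solution. Incubation lasted 35 minutes at 30° C.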

[1] = target: CREBBP bromodomain (His-CREBBP(1081-1197)) (Homo sapiens (Human), UniProt Q92793); test: AlphaScreen in-vitro binding assay for CREBBP; details: single determination or n ≧ 2 independent determinations, read-out: Biochemical IC50 CREBBP
Sequence of CREBBP bromodomain (His-CREBBP(1081-1197)) (Q92793 1081-1197): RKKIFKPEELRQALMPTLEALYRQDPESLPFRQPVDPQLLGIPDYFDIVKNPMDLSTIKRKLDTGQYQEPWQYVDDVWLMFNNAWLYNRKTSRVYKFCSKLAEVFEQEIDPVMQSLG
Method in brief: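 Detection used nickel-chelate acceptor plus streptavidin donor AlphaScreen beads, 1 h room temperature. Percent inhibition fitted by non-linear regression to IC50.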

MV-4-11 cells = test: Cell growth inhibition assay (CellTiter-Glo), MV-4-11; details: for GI50: Homo sapiens, MV4-11, read-out: MV-4-11 GI50; for MV-4-11 TGI: MV-4-11 cells, total growth inhibition, CellTiter-Glo;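 for all read-outs here: cellular ATP luminescence after 4 days, 3-fold dilution series from 10 µM top dose, vehicle (0.1% DMSO) set to 100%, cell-free medium set to −100%, day 0 corrected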
K-562 cells = test: Cell growth inhibition assay (CellTiter-Glo), K-562; details: for GI50: Homo sapiens, K562, read-out: K-562 GI50; for K-562 TGI: K-562 cells, total growth inhibition, CellTiter-Glo;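 for all read-outs here: cellular ATP measured by luminescence after 4 days of exposure, 3-fold dilution series from 10 µM, DMSO vehicle-treated cells define 100%, cell-free medium wells −100%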
BRD2 (His-Brd2(60-472)) = BRD2 (His-Brd2(60-472)) (Homo sapiens (Human), UniProt P25440); test: TR-FRET in-vitro binding assay for BRD2; details: single determination or n ≧ 2 independent determinations, read-out: Biochemical IC50 BRD2
Sequence of BRD2 (His-Brd2(60-472)) (P25440 60-472): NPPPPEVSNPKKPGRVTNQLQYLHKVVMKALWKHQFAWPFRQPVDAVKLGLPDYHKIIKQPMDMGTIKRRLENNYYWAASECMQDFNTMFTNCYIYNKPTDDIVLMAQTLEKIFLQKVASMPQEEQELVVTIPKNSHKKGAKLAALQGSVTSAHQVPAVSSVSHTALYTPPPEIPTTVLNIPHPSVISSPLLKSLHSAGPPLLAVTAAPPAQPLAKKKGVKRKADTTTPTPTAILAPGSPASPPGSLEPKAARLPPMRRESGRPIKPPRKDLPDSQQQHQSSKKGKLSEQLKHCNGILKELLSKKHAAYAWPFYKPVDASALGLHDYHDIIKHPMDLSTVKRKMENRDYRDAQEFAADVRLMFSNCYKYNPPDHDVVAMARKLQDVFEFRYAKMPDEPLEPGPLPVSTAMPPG
Method in brief: as §1

THP-1 cells = test: Cell growth inhibition assay (CellTiter-Glo), THP-1; details: for GI50: Homo sapiens, THP-1, read-out: THP-1 GI50; for THP-1 TGI: THP-1 cells, total growth inhibition, CellTiter-Glo;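 for all read-outs here: viability read as cellular ATP luminescence after 4 days, 3-fold dilution series from 10 µM, DMSO vehicle-treated cells taken as 100%, cell-free medium wells as −100%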
BRD3 (His-Brd3(20-477)) = BRD3 (His-Brd3(20-477)) (Homo sapiens (Human), UniProt Q15059); test: TR-FRET in-vitro binding assay for BRD3; details: single determination or n ≧ 2 independent determinations, read-out: Biochemical IC50 BRD3
Sequence of BRD3 (His-Brd3(20-477)) (Q15059 20-477): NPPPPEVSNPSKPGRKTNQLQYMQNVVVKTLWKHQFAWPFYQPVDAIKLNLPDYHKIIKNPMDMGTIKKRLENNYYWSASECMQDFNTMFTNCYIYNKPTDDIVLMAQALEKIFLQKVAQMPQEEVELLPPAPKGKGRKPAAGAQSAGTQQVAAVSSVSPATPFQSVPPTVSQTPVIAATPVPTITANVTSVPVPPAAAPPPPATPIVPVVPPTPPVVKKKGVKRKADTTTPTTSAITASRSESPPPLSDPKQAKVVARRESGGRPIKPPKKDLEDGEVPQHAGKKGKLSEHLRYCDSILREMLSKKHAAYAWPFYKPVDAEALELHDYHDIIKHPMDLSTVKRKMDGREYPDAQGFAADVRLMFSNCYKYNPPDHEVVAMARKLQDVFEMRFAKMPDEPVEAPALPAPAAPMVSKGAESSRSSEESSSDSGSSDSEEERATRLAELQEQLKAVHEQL
Method in brief: as §1

Row | SMILES | IC50 (BRD4 (His-Brd4(44-477))) | IC50 [1] | GI50 (MV-4-11 cells) | MV-4-11 TGI (MV-4-11 cells) | GI50 (K-562 cells) | K-562 TGI (K-562 cells) | IC50 (BRD2 (His-Brd2(60-472))) | GI50 (THP-1 cells) | THP-1 TGI (THP-1 cells) | IC50 (BRD3 (His-Brd3(20-477)))
1 | Cc1cc(N2C(=O)c3nc(C4=CCOCC4)[nH]c3[C@H]2c2ccc(Cl)cc2)cn2c(C)nnc12 [Example 167, (R)-6-(4-chlorophenyl)-2-(3,6-dihydro-2H-pyran-4-yl)-5-(3,8-dimethyl-[1,2,4]triazolo[4,3-a]pyridin-6-yl)-5,6-dihydropyrrolo[3,4-d]imidazol-4(1H)-one] | 35 nM | 1650 nM | 33.6 nM | 57.85 nM | 537 nM | >10000 nM | 63 nM | 103 nM | 188.5 nM | 53 nM
2 | COc1ncc(-c2nc3c(n2C(C)C)C(c2ccc(Cl)cc2)N(c2cc(C)c4onc(C)c4c2)C3=O)c(OC)n1 (centres unmarked) [Example 34, 6-(4-chlorophenyl)-2-(2,4-dimethoxypyrimidin-5-yl)-5-(3,7-dimethylbenzo[d]-isoxazol-5-yl)-1-isopropyl-5,6-dihydropyrrolo[3,4-d]imidazol-4(1H)-one] | 65.2 nM | 1670 nM | 36.6 nM | 76.6 nM | 219 nM | >10000 nM | 98.2 nM | 64.9 nM | 109 nM | 76.5 nM
3 | COc1cc(N2C(=O)c3nc(C)n(C(C)C)c3C2c2ccc(Cl)cc2)cc2c1nnn2C (centres unmarked) [Example 63] | 72 nM | 21900 nM | 88.2 nM | 141 nM | 458 nM | >10000 nM | 240 nM | 192 nM | 369 nM | 96.5 nM
4 | COc1ccc(-c2nc3c([nH]2)[C@@H](c2ccc(Cl)cc2)N(c2cc(C)c4nnc(C)n4c2)C3=O)cn1 [Example 129, (R)-6-(4-chlorophenyl)-5-(3,8-dimethyl-[1,2,4]triazolo[4,3-a]pyridin-6-yl)-2-(6-methoxypyridin-3-yl)-5,6-dihydropyrrolo[3,4-d]imidazol-4(1H)-one] | 1840 nM | > 37000 nM | 209 nM | 343 nM | 1070 nM | >10000 nM | 4700 nM | 662 nM | 1080 nM | 2320 nM
5 | Cc1cc(N2C(=O)c3nc(C4=CCOCC4)n(C(C)C)c3C2c2ccc(Cl)cc2)nn2c(C(F)F)nnc12 (centres unmarked) [Example 161, 6-(4-chlorophenyl)-5-(3-(difluoromethyl)-8-methyl-[1,2,4]triazolo[4,3-b]pyridazin-6-yl)-2-(3,6-dihydro-2H-pyran-4-yl)-1-isopropyl-5,6-dihydropyrrolo[3,4-d]imidazol-4(1H)-one] | 15 nM | > 37000 nM | 5.99 nM | 13.65 nM | 75.2 nM | >10000 nM | 30 nM | 6.09 nM | 13.65 nM | 16 nM
6 | Cc1cc(N2C(=O)c3nc(C4=CCOC4)n(C(C)C)c3[C@H]2c2ccc(Cl)cc2)cn2c(C)nnc12 [Example 48, (R)-6-(4-chlorophenyl)-2-(2,5-dihydrofuran-3-yl)-5-(3,8-dimethyl-[1,2,4]triazolo[4,3-a]pyridin-6-yl)-1-isopropyl-5,6-dihydropyrrolo[3,4-d]imidazol-4(1H)-one] | 27 nM | 3050 nM | 10.5 nM | 24.5 nM | 351 nM | >10000 nM | 41 nM | 56.5 nM | 109 nM | 33 nM
7 | COc1ncccc1-c1nc2c(n1C(C)C)C(c1ccc(Cl)cc1)N(c1cc(C)c3nnc(CF)n3c1)C2=O (centres unmarked) [Example 89, 6-(4-chlorophenyl)-5-(3-(fluoromethyl)-8-methyl-[1,2,4]triazolo[4,3-a]pyridin-6-yl)-1-isopropyl-2-(2-methoxypyridin-3-yl)-5,6-dihydropyrrolo[3,4-d]imidazol-4(1H)-one] | 15 nM | 8350 nM | 10.3 nM | 20.8 nM | 63.6 nM | >10000 nM | 35 nM | 14.9 nM | 40.45 nM | 13 nM
8 | Cc1cc(N2C(=O)c3nc(C4=CCN(C(=O)OC(C)C)CC4)n(C(C)C)c3C2c2ccc(Cl)cc2)cn2c(C)nnc12 (centres unmarked) [Example 71, isopropyl 4-(6-(4-chlorophenyl)-5-(3,8-dimethyl-[1,2,4]triazolo[4,3-a]pyridin-6-yl)-1-isopropyl-4-oxo-1,4,5,6-tetrahydropyrrolo[3,4-d]imidazol-2-yl)-5,6-dihydropyridine-1(2H)-carboxylate] | 18.5 nM | 4300 nM | 31.3 nM | 44.5 nM | 228 nM | >10000 nM | 33 nM | 63.7 nM | 138.5 nM | 18 nM
9 | Cc1cc(N2C(=O)c3nc(C)n(C(C)C)c3[C@H]2c2ccc(Cl)cc2)cc2c1nnn2C [Example 109, (R)-6-(4-chlorophenyl)-5-(3,7-dimethyl-3H-benzo[d][1,2,3]triazol-5-yl)-1-isopropyl-2-methyl-5,6-dihydropyrrolo[3,4-d]imidazol-4(1H)-one] | 22 nM | 4350 nM | 6.29 nM | 15.35 nM | 52 nM | >10000 nM | 38 nM | 11.9 nM | 35.8 nM | 19 nM
10 | Cc1cc(N2C(=O)c3nc(C)n(C(C)C)c3C2c2ccc(Cl)cc2)cn2c(C(F)F)nnc12 (centres unmarked) [Example 131, 6-(4-chlorophenyl)-5-(3-(difluoromethyl)-8-methyl-[1,2,4]triazolo[4,3-a]pyridin-6-yl)-1-isopropyl-2-methyl-5,6-dihydropyrrolo[3,4-d]imidazol-4(1H)-one] | 28 nM | > 37000 nM | 16.4 nM | 29.5 nM | 87.5 nM | >10000 nM | 49 nM | 23.8 nM | 55 nM | 31 nM
11 | Cc1cc(N2C(=O)c3nc(C)n(C(C)C)c3[C@H]2c2ccc(Cl)cc2)nn2c(C)nnc12 [Example 110, (R)-6-(4-chlorophenyl)-5-(3,8-dimethyl-[1,2,4]triazolo[4,3-b]pyridazin-6-yl)-1-isopropyl-2-methyl-5,6-dihydropyrrolo[3,4-d]imidazol-4(1H)-one] | < 11 nM | 35900 nM | 4.48 nM | 11 nM | 30.6 nM | >10000 nM | 12 nM | 6.94 nM | 21.6 nM | < 11 nM
